{"source": "patent US10092643B2", "about": "“Prophylactic and immunomodulatory compositions and uses” (Kherion Technology Limited, priority 2005, dated 2018)", "key": {"[1]": {"tested_on": "T cells", "conditions": "Jin et al., Blood 2003; cited from earlier work"}, "[2]": {"tested_on": "Mycobacterium tuberculosis", "conditions": "human macrophages; concentration close to physiologic ones; cited from earlier work"}, "[3]": {"tested_on": "dendritic cells", "conditions": "administered to dendritic cells in vitro; cited from earlier work"}, "[4]": {"test": "safety of S1P administration in mice", "conditions": "levels at which immunoregulatory activity can be measured"}, "[5]": {"tested_on": "Mtb-infected macrophages", "conditions": "cited from earlier work"}, "[6]": {"tested_on": "Mtb specific T cells", "test": "expansion of Mtb specific T cells after S1P administration to TB-infected macrophages", "assay_type": "cell-based", "conditions": "S1P administered to TB-infected macrophages"}, "[7]": {"tested_on": "macrophagic phospholipase D (PLD)", "conditions": "cited from earlier work"}, "[8]": {"tested_on": "Mycobacterium tuberculosis", "conditions": "MTB-infected mice, intravenously injected; cited from earlier work"}, "[9]": {"tested_on": "M. tuberculosis (Erdman)", "test": "S1P as adjuvant for BCG vaccine in mice (immunogenicity and protection protocol)", "conditions": "protocol to be followed"}, "[10]": {"tested_on": "macrophages and epithelial cells", "test": "S1P given before infection: control of infection by macrophages and epithelial cells", "assay_type": "cell-based", "conditions": "S1P administered before infection"}}}
{"smiles": "CCCCCCCCCCCCC/C=C/C(O)C(N)COP(=O)(O)O", "note": "[S1P, D-erythro-sphingosine 1-phosphate]", "values": [{"measurement": "activation and proliferation of T cells", "setting": "[1]", "result": "inhibit activation and proliferation of T cells"}, {"measurement": "antimicrobial activity / intracellular killing of TB", "setting": "[2]", "result": "induce antimicrobial activity in human macrophages leading to the intracellular killing of TB"}, {"measurement": "secretion of cytokine profiles (Th1/Th2 responses)", "setting": "[3]", "result": "alter the secretion of cytokine profiles"}, {"measurement": "safety", "setting": "[4]", "result": "appears safe"}, {"measurement": "phagolysosomal fusion", "setting": "[5]", "result": "promote phagolysosomal fusion"}, {"measurement": "expansion of Mtb specific T cells", "setting": "[6]", "result": "induces expansion of Mtb specific T cells"}, {"measurement": "PLD activity in macrophages", "setting": "[7]", "result": "increase PLD activity in macrophages"}, {"measurement": "mycobacterial growth", "setting": "[8]", "result": "significantly reduced"}, {"measurement": "pulmonary tissue damage", "setting": "[8]", "result": "significantly reduced"}, {"measurement": "properties as a vaccine adjuvant", "setting": "[9]", "result": "novel, unexpected and advantageous properties as a vaccine adjuvant"}, {"measurement": "capacity to control an infection", "setting": "[10]", "result": "increases the capacity of macrophages and epithelial cells to control an infection"}]}
